Test results taken from PubChem BioAssay AID449762 (Southern Research Specialized Biocontainment Screening …, 2010).
Records with an inconclusive call do not appear.

System: M. tuberculosis H37Rv growth inhibition, 7H9 media
Assay: M. tuberculosis growth inhibition, HTS (AID 449762);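 also: bacterial growth assessed after seven days of incubation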
Settings: for IC90: measured here: IC90 growth inhibition

| Compound | IC50 [µM] | IC90 [µM] |
| --- | --- | --- |
| COc1ccc(-c2cc3c(=O)n(CC(=O)NCCCN4CCC(Cc5ccccc5)CC4)ncn3n2)cc1 | 23.7 | 26.2 |
| C(=N\NC1=Nc2cccc3cccc1c23)/c1cccnc1 | 13.4 | > 100 |
| Cn1cc(/C=C2\C(=O)NC(=O)N(c3ccccc3)C2=O)c2ccccc21 | 10.7 | 24.2 |
| O=[N+]([O-])c1cc([N+](=O)[O-])c2cc3ccccc3nc2c1 | < 0.2 | 0.81 |
| COc1ccc(N(CC(=O)Nc2ccccc2C(N)=O)S(=O)(=O)c2ccc(C)c([N+](=O)[O-])c2)cc1 | 87.7 | > 100 |
| COc1ccccc1C1=NOC(COC(=O)c2ccc([N+](=O)[O-])cc2)C1 (stereo not drawn) | 34.4 | > 100 |
| O=C1NCC(c2ccccc2)C1C(=O)N/N=C\c1ccc(-c2ccc(Cl)c(Cl)c2)o1 (stereo not drawn) | 91 | > 100 |
| Cc1cccc(C)c1OCCCCc1c(C)n[nH]c1C | 10.9 | 26.4 |
| Cn1cnc(Sc2ncnc3nc[nH]c23)c1[N+](=O)[O-] | 9.85 | 17 |
| CN1/C(=C\C(=O)COC(=O)c2ccc([N+](=O)[O-])o2)C(C)(C)c2ccccc21 | 1.04 | 3.54 |
| c1ccc(Cn2c3ccccc3c3nnc(SCCN4CCCCC4)nc32)cc1 | 21.3 | 34.5 |
| COCCCNC(=O)/C(C#N)=C/c1c(N2CCN(c3cccc(Cl)c3)CC2)nc2c(C)cccn2c1=O | 53.9 | > 100 |
| CCc1nnc(NS(=O)(=O)c2ccc(N/C=C\C(=O)c3cccc(OC)c3)cc2)s1 | 16.2 | 35.5 |
| O=C(CCl)Nc1nccs1 | 2.01 | 4.71 |
| CCOc1cc(C(=O)OCc2ccc(C(=O)OC)o2)cc(Br)c1OC | 61.7 | > 100 |
| COc1cc2c(cc1OC)C(c1cc(Br)ccc1F)N(C(=O)CCl)CC2 (stereo not drawn) | 2.77 | 5.69 |
| Cc1ccccc1-n1c(SCC(=O)N/N=C/c2c(C)nn(-c3ccccc3)c2C)nc2ccccc2c1=O | 2.85 | 3.52 |

| Compound | IC50 [µM] | IC90 [µM] |
| --- | --- | --- |
| COc1cc(C)ccc1S(=O)(=O)N1CCN(C23CC4CC(CC(C4)C2)C3)CC1 | 28.8 | 44 |
| CCOc1ccc(-c2cnc(NCc3cccc4ccccc34)n2CCOC)cc1 | 5.56 | 8.14 |
| O=[N+]([O-])c1ccc(C2Oc3ccccc3C3CC(c4ccccc4)=NN32)s1 (stereo not drawn) | 6.12 | 6.95 |
| CN(C)c1ccc(N=Nc2ccccc2C(=O)OCC(=O)NCC2CCCCC2)cc1 | 11 | 13.1 |
| Oc1cc(NCc2cccnc2)ccc1-c1nc2ccccc2o1 | 12.6 | 44.4 |
| C/C(=N/NC(=O)c1ccccn1)c1c[nH]c2ccccc12 | 6.03 | 11.8 |
| COc1ccc(N(CC(=O)Nc2cc(Cl)ccc2C)S(=O)(=O)c2c(C)n[nH]c2C)cc1 | 45.8 | 51.2 |
| O=C(NC(=S)Nc1cccc2cccnc12)c1ccccc1 | 14.7 | > 100 |
| Cc1ccc(NS(=O)(=O)c2ccc(NC(=O)CN(c3cc([N+](=O)[O-])ccc3C)S(C)(=O)=O)cc2)c(C)c1 | 41.3 | > 100 |
| c1ccc(Cn2c(CNc3nc4ccccc4n3CCN3CCCCC3)nc3ccccc32)cc1 | 33.8 | 43.9 |
| S=C(NCCN1CCOCC1)N/N=C/c1cccs1 | 5.55 | 6.22 |
| CCc1ccc(/C(C)=N/Nc2cc(Cl)nc(C)n2)cc1 | 41.9 | 99 |
| Cc1ccc(C2CC(c3cccs3)=NN2C(=O)CCl)cc1 (stereo not drawn) | 0.39 | 1.39 |
| O=C(c1ccccc1)c1ccc(OCCOCCN2CCN(Cc3ccccc3)CC2)cc1 | 23.7 | 37.5 |
| CC1(C)CN(c2ccccc2)N(C(=O)c2ccc(C#N)cc2)C1=O | 72.4 | > 100 |
| O=C(Nc1nnc(-c2ccccc2Cl)o1)c1nc2ccccc2s1 | 6.01 | 6.78 |
| N#CC(C#N)=C(N)CSc1cccc[n+]1[O-] | 6.25 | 11 |
